In PMC12770603 (Scientific Reports, 2025):

System: EstN3
Assay: p-nitrophenol release at […] nm, Michaelis-Menten non-linear fit
Assay type: biochemical, uncultured bacterium
Conditions: pH 7.0, 37 °C, 15 min

Km: 1520 µM
Structure (SMILES): CCCCC(=O)Oc1ccc([N+](=O)[O-])cc1 [pNP-valerate]
